Results published in US7951810B2, “Substituted pyrrolo[2,3-d]pyrimidines as inhibitors of E1 activating enzymes” (Millennium Pharmaceuticals, Inc., priority 2005, dated 2011).
pIC50: −log10 of the molar value.

Target: T1, recombinant human NAE enzyme (Homo sapiens, UniProt Q8TBC4)
T1 construct: His (N); made in house; host or cells: Sf9 insect cells (baculovirus, Bac-to-Bac)
T1 sequence (Q8TBC4 1-463): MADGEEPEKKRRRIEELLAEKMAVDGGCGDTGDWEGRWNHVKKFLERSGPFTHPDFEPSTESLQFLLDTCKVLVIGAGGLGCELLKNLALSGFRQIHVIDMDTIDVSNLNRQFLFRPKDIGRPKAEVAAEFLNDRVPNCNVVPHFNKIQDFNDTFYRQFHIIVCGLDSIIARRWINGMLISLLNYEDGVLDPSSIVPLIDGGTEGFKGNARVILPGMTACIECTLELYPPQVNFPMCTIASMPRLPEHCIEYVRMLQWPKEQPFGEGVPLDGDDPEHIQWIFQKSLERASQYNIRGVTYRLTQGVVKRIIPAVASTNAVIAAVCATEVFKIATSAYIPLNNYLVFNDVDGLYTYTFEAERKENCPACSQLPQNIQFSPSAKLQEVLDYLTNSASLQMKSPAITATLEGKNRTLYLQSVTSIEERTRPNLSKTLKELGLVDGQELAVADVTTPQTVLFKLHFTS
T1 sequence (Q13564 1-534 partner): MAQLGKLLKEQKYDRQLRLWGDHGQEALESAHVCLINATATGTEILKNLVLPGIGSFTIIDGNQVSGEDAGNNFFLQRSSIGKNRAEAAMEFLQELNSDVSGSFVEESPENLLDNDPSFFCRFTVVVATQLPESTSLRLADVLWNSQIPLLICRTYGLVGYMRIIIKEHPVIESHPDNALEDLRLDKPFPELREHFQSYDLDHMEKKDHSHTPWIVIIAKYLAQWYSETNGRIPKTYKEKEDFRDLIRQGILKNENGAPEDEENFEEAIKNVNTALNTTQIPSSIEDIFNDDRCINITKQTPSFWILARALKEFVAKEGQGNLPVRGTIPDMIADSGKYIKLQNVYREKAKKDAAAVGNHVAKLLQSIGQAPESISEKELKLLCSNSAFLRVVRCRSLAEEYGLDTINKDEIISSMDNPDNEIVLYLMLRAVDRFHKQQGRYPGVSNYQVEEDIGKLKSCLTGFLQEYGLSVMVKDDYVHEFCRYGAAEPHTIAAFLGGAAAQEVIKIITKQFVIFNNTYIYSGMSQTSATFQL
Assay: Nedd8-Activating Enzyme (NAE) HTRF assay
Assay type: biochemical
Settings: 20 μM ATP, 90 minutes at 24° C.
Protocol: Following manufacturer instructions, baculoviruses were generated with the Bac-to-Bac Expression System (Invitrogen) for the following proteins: untagged NAEα (APPBP1; NP_003896.1), N-terminally His-tagged NAEβ (UBE1C; NP_003959.3), untagged SAEα (SAE1; NP_005491.1), N-terminally His-tagged SAEβ (UBA2; NP_005490.1), N-terminally His-tagged murine UAE (UBE1X; NP_033483). NAEα/His-NAEβ and SAEα/His-SAEβ complexes were generated by co-infection of Sf9 cells, which were harvested after 48 hours. His-mUAE was generated by single infection of Sf9 cells and harvested after 72 hours. Expressed proteins were purified by affinity chromatography (Ni-NTA agarose, Qiagen) using standard buffers.
Ubc12 (UBE2M; NP_003960.1), Ubc9 (UBE2I; NP_003336.1), Ubc2 (UBE2A; NP_003327.2) were subcloned into pGEX (Pharmacia) and expressed as N-terminally GST tagged fusion proteins in E. coli. Expressed proteins were purified by conventional affinity chromatography using standard buffers.
Nedd8 (NP_006147), Sumo-1 (NP_003343) and Ubiquitin (with optimized codons) were subcloned into pFLAG-2 (Sigma) and expressed as N-terminally Flag tagged fusion proteins in E. coli. Expressed proteins were purified by conventional chromatography using standard buffers.
Nedd8-Activating Enzyme (NAE) HTRF Assay.
The NAE enzymatic reaction totaled 50 μL and contained 50 mM HEPES (pH 7.5), 0.05% BSA, 5 mM MgCl2, 20 μM ATP, 250 μM GSH, 0.01 μM Ubc12-GST, 0.075 μM Nedd8-Flag and 0.28 nM recombinant human NAE enzyme. The enzymatic reaction mixture, with and without compound inhibitor, was incubated at 24° C. for 90 minutes in a 384-well plate before termination with 25 μL of Stop/Detection buffer (0.1M HEPES pH 7.5, 0.05% Tween20, 20 mM EDTA, 410 mM KF, 0.53 nM Europium-Cryptate labeled monoclonal anti-FLAG M2 antibody (CisBio International) and 8.125 μg/mL PHYCOLINK goat anti-GST allophycocyanin (XL-APC) antibody (Prozyme)). After incubation for 3 hours at 24° C., quantification of the FRET was performed on the Analyst™ HT 96.384 (Molecular Devices).

[1] = threshold less than or equal to 100 nM
[2] = threshold less than or equal to 1 μM

| pIC50 [1] | pIC50 [2] | Structure (SMILES) |
| --- | --- | --- |
| ≥ 7.00 | ≥ 6.00 | NS(=O)(=O)OC[C@H]1O[C@@H](n2cnc3c(N[C@H]4CCc5ccccc54)ncnc32)C[C@@H]1O [Compound I-1, ((2R,3S,5R)-5-{6-[(1S)-2,3-dihydro-1H-inden-1-ylamino]-9H-purin-9-yl}-3-hydroxytetrahydrofuran-2-yl)methyl sulfamate] |
| – | ≥ 6.00 | Cn1cc(CNc2ncnc3c2ncn3[C@@H]2O[C@H](CNS(N)(=O)=O)[C@@H](O)[C@H]2O)cn1 [Compound I-38, N-{[(2R,3S,4R,5R)-3,4-dihydroxy-5-(6-{[(1-methyl-1H-pyrazol-4-yl)methyl]-amino}-9H-purin-9-yl)tetrahydrofuran-2-yl]methyl}sulfamide] |
| ≥ 7.00 | ≥ 6.00 | C[C@@H](OS(N)(=O)=O)[C@H]1O[C@@H](n2cnc3c(N[C@H]4CCc5ccccc54)ncnc32)[C@H](O)[C@@H]1O [Compound I-58, (R)-1-((2S,3S,4R,5R)-5-(6-((S)-2,3-dihydro-1H-inden-1-ylamino)-9H-purin-9-yl)-3,4-dihydroxy-tetrahydrofuran-2-yl)ethyl sulfamate] |
| ≥ 7.00 | ≥ 6.00 | NS(=O)(=O)NC[C@H]1O[C@@H](n2cnc3c(NCc4ccc(F)cc4)ncnc32)[C@H](O)[C@@H]1O [Compound I-126, N-[((2R,3S,4R,5R)-5-{6-[(4-fluorobenzyl)amino]-9H-purin-9-yl}-3,4-dihydroxytetrahydrofuran-2-yl)methyl]sulfamide] |
| ≥ 7.00 | ≥ 6.00 | COCCc1ncnc2c1ncn2[C@@H]1O[C@H](COS(N)(=O)=O)[C@@H](O)[C@H]1O [Compound I-137, {(2R,3S,4R,5R)-3,4-dihydroxy-5-[6-(2-methoxyethyl)-9H-purin-9-yl]tetrahydrofuran-2-yl}methyl sulfamate] |
